Measurements published in article PMC6795431, “Identification and characterisation of capidermicin, a novel bacteriocin produced by Staphylococcus capitis” (PLoS ONE, 2019).
Entries after “also recorded” stand apart in the source; their conditions may differ. Where no end group is shown, it is not given here. The star is where a group is joined. For = O=C*

Assays:
trypsin = settings: cited from earlier work
Protocol: (§1) Similar findings have been reported for epidermicin NI01 [42] and lacticin Q [41]. While capidermicin is insensitive to α-chymotrypsin and pepsin, a 70% reduction in activity was observed when it was treated with proteinase K or trypsin. […] Resistance to proteases has been reported for other staphyloco ...

proteinase K = target: T1, proteinase K (Parengyodontium album, UniProt P06873); settings: previously observed; cited from earlier work
T1 construct: purchased Sigma-Aldrich
T1 sequence (P06873 106-384): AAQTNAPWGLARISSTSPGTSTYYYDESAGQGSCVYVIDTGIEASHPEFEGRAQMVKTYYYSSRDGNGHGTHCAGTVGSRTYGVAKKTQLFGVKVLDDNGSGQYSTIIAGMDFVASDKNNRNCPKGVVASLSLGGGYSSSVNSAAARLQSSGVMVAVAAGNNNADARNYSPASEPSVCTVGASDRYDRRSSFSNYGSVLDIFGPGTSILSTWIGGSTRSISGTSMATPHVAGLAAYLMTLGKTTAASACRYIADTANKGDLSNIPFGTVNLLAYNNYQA
Protocol: as §1

[1] = Temperature stability, bioactivity by agar well diffusion; type: physicochemical; settings: purified peptide, 10, 30, 40, 50, 80, 90 or 121°C for 15 minutes; agar well diffusion with L. lactis HP
Protocol: (§2) The susceptibility of purified capidermicin peptide to temperature, pH and protease enzymes was investigated through well diffusion assays. To determine temperature stability the purified peptide was subjected to 10, 30, 40, 50, 80, 90, 121°C for 15 minutes. Bioactivity was then determined by carrying out an agar well diffusion assay with L. lactis HP as the bacterial indicator. To evaluate the susceptibility of the peptide to varying pH values, the purified peptide solution was adjusted to pH 2–11 using 1M HCl or 1M NaOH, respectively. After a brief vortex, the peptide was incubated at room temperature for 15 minutes, and the bioactivity was again determined with the well diffusion assay with L. lactis HP. The susceptibility of the peptide to proteolytic cleavage was analysed using trypsin, α-chymotrypsin, pepsin and proteinase K (Sigma-Aldrich). Protease enzymes were dissolved in 100 mM Tris-HCl– 10 mM CaCl2, to a final concentration of 100 μg/ml. Preparations of capidermicin were incubated with the various enzymes at 37°C for 4 hours and the bioactivity of capidermicin was reassessed using the well diffusion assay described above.

[2] = pH stability, bioactivity by agar well diffusion; type: physicochemical; settings: 15 minutes at room temperature, agar well diffusion with L. lactis HP
Protocol: as §2

Substance	Reduction in activity for trypsin (trypsin)	Reduction in activity for proteinase K (proteinase K)	Antimicrobial activity following heat treatment [1]	Bioactivity following exposure to pH 2–8 ([2]; pH adjusted with 1M HCl or 1M NaOH)	Decrease in zone of inhibition at pH 9–11 ([2]; pH adjusted with 1M NaOH)
epidermicin NI01	50%	75%			
For-MSKVISALSKYGPKAVNWAKNHKGQIANWLLHGLSIPDIVQNVKNAVGIK [capidermicin]			retained; also recorded: unaffected	full bioactivity	70%
